From ChEMBL document CHEMBL1158920, “Tubulosine: an antitumor constituent of Pogonopus speciosus” (J Nat Prod, 1990)
Converted amounts (≈) assume the structure as drawn.

Columns and labels:
[1] = system: Artemia; experiment: Toxicity in brine shrimp; assay type: organism-based; details: in vivo
[2] = system: Agrobacterium tumefaciens; experiment: Antitumor activity against Agrobacterium tumefaciens-induced crown gall tumors in potato by disk test; assay type: functional
[3] = Cytotoxicity against mouse 9PS cells; assay type: functional
[4] = Cytotoxicity against human 9KB cells; assay type: functional; details: read-out: ED50 (the source's name)
[5] = system: A549; experiment: Cytotoxicity against human A549 cells; assay type: functional
[6] = system: MCF7; experiment: Cytotoxicity against human MCF7 cells; assay type: functional
[7] = system: HT-29; experiment: Cytotoxicity against human HT-29 cells; assay type: functional
[8] = In vivo antitumor activity against mouse 3PS cells at 0.25 mg/kg, relative to control; assay type: functional

With `CC[C@H]1CN2CCc3cc(OC)c(OC)cc3[C@@H]2C[C@@H]1C[C@H]1NCCc2c1[nH]c1ccc(O)cc21` [TUBULOSINE] as the molecule, how does the LC50 [1] read?
Its LC50 is 0.02 ppm.

What about the “inhibition (INH)” value [2] of the same molecule?
The value was 81%.

What about the ED50 [3] of the same molecule?
The ED50 was 3.8 ×10⁻⁴ ug/ml.

What about the EC50 [4] of the same molecule?
The EC50 was 0.01 µg/mL (≈ 0.021 µM).

And the ED50 [5]?
The ED50 was under 1 ×10⁻⁵ ug/ml.

And the ED50 [6]?
The ED50 was under 1 ×10⁻⁵ ug/ml.

What about the ED50 [7] of the same molecule?
The ED50 was under 1 ×10⁻⁵ ug/ml.

And the T/C [8]?
The T/C was 186%.

With `CC[C@H]1CN2CCc3cc(OC)c(OC)cc3[C@@H]2C[C@@H]1CC1=NCCc2cc(O)c(OC)cc21` [PSYCHOTRINE] as the molecule, how does the LC50 [1] read?
Its LC50 is over 1000 ppm.

And the EC50 ([3]; Mus musculus, read-out: ED50 (the source's name))?
Its EC50 is 1 µg/mL (≈ 2.15 µM).

And the EC50 ([5]; Homo sapiens, A549, read-out: ED50 (the source's name))?
The EC50 was over 10 µg/mL.

What about the EC50 ([6]; Homo sapiens, MCF7, read-out: ED50 (the source's name)) of the same molecule?
The EC50 was over 10 µg/mL.

And the EC50 ([7]; Homo sapiens, HT-29, read-out: ED50 (the source's name))?
Its EC50 is over 10 µg/mL.
